Key:
[1] = tested on: soluble cabbage PLD; experiment: Soluble PLD activity, cabbage leaf extract (radio-labeled PC); format: biochemical, cabbage (Brassica oleracea L. Blue Vintage)
[2] = tested on: membrane-associated cabbage PLD; experiment: Membrane-associated PLD activity, cabbage leaf extract; format: biochemical, cabbage (Brassica oleracea L. Blue Vintage)
[3] = tested on: cranberry fruits; experiment: Ethylene production of postharvest cranberry fruits after LPE dip; format: in vivo, Vaccinium macrocarpon Ait. 'Stevens'; details: for Ethylene production, Relative %: 100 μM, control = 100
Description: However, the impact of different acyl chains of LPE on fruit senescence has not been investigated. In the present study, complementary to the effect of different acyl chains of LPE on PLD activity, the inventors investigated the effect of different acyl chains of LPE on ethylene production of cranberry fruits. Fully ripened cranberry fruits (Vaccinium macrocarpon Ait. 'Stevens') were harvested during the fall season and kept in a cold room. […] After two days, berries were incubated in a sealed glass jar for 24 hours in order to measure ethylene production. Ethylene was quantified with a gas chromatograph equipped with a flame ionization detector (Shinadzu 9AM, Shimadzu Corporation, Kyoto, Japan) (3).

[4] = tested on: tomato fruits; experiment: Retardation of senescence of harvested mature green tomato fruits; format: in vivo, Lycopersicon esculentum cv. H9144; details: for Ethylene Production after 7 days / Rotten fruits after 3 weeks (% of total): 100 mg/L in 1% ethanol, 20 min dip; for Ethylene Production after 7 days: control 1.26 ± 0.21, Mean ± SE; for Rotten fruits after 3 weeks (% of total): control 37.2; for ethylene production relative to control: 7 days after treatment
Description: Mature green fruits of tomato (Lycopersicon esculentum cv. […]) were harvested from three month old plants. […] The control tomatoes were dipped in distilled water containing 1% ethol. After dipping, the fruits were stored at room temperature for 3 weeks. Production of ethylene gas was measured 7 days after treatment.

[5] = tested on: tomato plants/fruits; experiment: Enhancement of tomato fruit ripening and stability by preharvest spray; format: in vivo, Tomato plants cv. H9478; details: 100 mg/L spray 10 days before harvest; for At Harvest, Partial Red fruits (weight % of total): control 13.2; for At Harvest, Green fruits (weight % of total): control 33.2; for 3 Weeks After Harvest, Soft Fruits (non marketable) (weight % of total): control 47.8; for At Harvest, Red fruits (weight % of total): control 53.6
Description: This experiment was conducted to compare the effects of […] (18:1) and LPI on fruit ripening. Tomato plants cv. […] were grown in pots for two and one-half months under fluorescent lights. […] All solutions contained 1% ethol and 0.05% […] 309 (Dow Corning Co., Midland, Mich.) as activating agents. Control plants received distilled water containing 1% ethanol and 0.05% […] 309. Fruits were harvested 10 days after treatment and graded into green, partial red, and red (indicating full ripening). […] (see Table 7).

[6] = tested on: soluble castor bean PLD
[7] = tested on: membrane-associated castor bean PLD
[8] = tested on: carnation flowering spikes; experiment: Vase life of cut carnation flowers; details: 25 mg/L; control 27.5 ± 3.3; Mean ± SE
[9] = tested on: snapdragon flowering spikes; experiment: Vase life and senescence of cut snapdragon spikes; details: for Spikes with Wilted Flower Florets after 7 days (% of total): 24 hr; for Spikes with Wilted Flower Florets after 7 days (% of total) / Water Content of Leaf after 18 days (Fresh wt/Dry wt): Mean ± SE; for Water Content of Leaf after 18 days (Fresh wt/Dry wt): control 5.79 ± 0.18; for Vase Life of Spikes (Days when > 50% of spikes remained marketable): control 4; for Leaf water content of spikes: 18 days after treatment; for spikes wilted after 7 days of treatment: range over tested concentrations, control 76%
[10] = tested on: partially purified cabbage PLD; experiment: Partially purified cabbage PLD activity assay (PEOH release from PC); details: for Effect of components of the LPE molecule on PLD activity: FIG. 2; for Effect of different lysophospholipids on PLD activity: FIG. 5
[11] = tested on: tomato leaves; experiment: Retardation of ethephon-induced leaf senescence in tomato plants; format: in vivo, Tomato plants cv. H9144; details: ethephon 1000 mg/L ± lysophospholipid 50 mg/L spray; 10 to 14 days after treatment; Mean ± SE
Description: Ethephon, also known as Ethrel, (Ethrel is a trademark of Rhone-Poulenc Ag. Co. (Research Triangle Park, N.C.)) is an aqueous formulation that decomposes to ethylene and is used widely to maximize the yield of ripe tomato fruits in once-over harvesting operations. […] Tomato plants cv. H9144 were grown in a greenhouse for two and a half months to serve as sources of leaf samples. Plant were sprayed to runoff with ethephon at 1000 mg/L or with ethephon plus lysophospholipid mixtures as shown below in Table 6. Lysophospholipid solutions at 50 mg/L were prepared in 1% (v/v) ethanol and mixed with ethephon (1000 mg/L). Control plans were sprayed with ethephon alone in 1% (v/v) ethanol. Senescence of treated leaves was quantified 10 to 14 days after treatment by measuring chlorophyll and protein content.

[12] = tested on: senescing leaves; experiment: Leaf chlorophyll content after eight day senescence; format: in vivo; details: after eight day senescence (FIG. 6)
Description: To evaluate the relative efficacy of various species of lysophospholipids in delaying senescence in leaves, treatment solutions containing lysophosphatidic acid (LPA), lysophosphatidylcholine (LPC),LPE, LPI, or water were applied to leaves. The chlorophyll content of each sample was measured by standard methods (10) after an eight day senescence. The relative chlorophyll contents were expressed as the percentage of the control.

[13] = 200 μM, PC substrate (FIG. 1, 2, 5)

Compound: CCCCCCCC/C=C\CCCCCCCC(=O)OCC(O)COP(=O)(O)OCCN (stereo not shown) [LPE (18:1), lysophosphatidylethanolamine (18:1)]
- Ratio (LPE/Control), Soluble PLD, Cabbage ([1]; 200 μM): 0.51
- Soluble PLD activity, Cabbage ([1]; 200 μM, control 45.2 ± 3.5, mean ±SE): 23.1 ± 1.6 nmol min^−1 mg^−1 protein
- Specific activity of soluble cabbage PLD, % of the control ([1]; in the presence of LPE (18:1)): 51%
- Ratio (LPE/Control), Membrane-associated PLD, Cabbage ([2]; 200 μM): 0.59
- Membrane-associated PLD activity, Cabbage ([2]; 200 μM, control 368.8 ± 6.5, mean ±SE): 217.0 ± 13.0 nmol min^−1 mg^−1 protein
- Specific activity of membrane-associated cabbage PLD, % of the control ([2]; in the presence of LPE (18:1)): 59%
- Ethylene production, Relative % [3]: 59.6%
- decrease in ethylene production ([3]; 2 days after treatment): 40%
- Ethylene Production after 7 days [4]: 0.70 ± 0.20 nl/g. hr^1
- Rotten fruits after 3 weeks (% of total) [4]: 7.7 % of total
- ethylene production relative to control [4]: about half of the control
- At Harvest, Partial Red fruits (weight % of total) [5]: 11.7 weight % of total
- At Harvest, Green fruits (weight % of total) [5]: 22.9 weight % of total
- 3 Weeks After Harvest, Soft Fruits (non marketable) (weight % of total) [5]: 33.0 weight % of total
- At Harvest, Red fruits (weight % of total) [5]: 65.4 weight % of total
- Soluble castor bean PLD activity, % of the control [6]: 30%
- Ratio (LPE/Control), Soluble PLD, Castor Bean ([6]; 200 μM): 0.30
- Soluble PLD activity, Castor Bean ([6]; 200 μM): 3.1 ± 0.1 nmol min^−1 mg^−1 protein
- Membrane-associated castor bean PLD activity, % of the control [7]: 31%
- Membrane-associated PLD activity, Castor Bean ([7]; 200 μM): 47.0 ± 3.6 nmol min^−1 mg^−1 protein
- Ratio (LPE/Control), Membrane-associated PLD, Castor Bean ([7]; 200 μM): 0.31
- Marketable Flowers after 6 days of treatment (% of total) [8]: 41.7 ± 8.3 % of total
- Spikes with Wilted Flower Florets after 7 days (% of total) ([9]; 5 mg/L, control 75.5 ± 10.3): 34.5 ± 5.5 % of total
- Water Content of Leaf after 18 days (Fresh wt/Dry wt) ([9]; 5 mg/L): 7.81 ± 0.22 Fresh wt/Dry wt
- Spikes with Wilted Flower Florets after 7 days (% of total) ([9]; 10 mg/L): 30.0 ± 5.5 % of total
- Vase Life of Spikes (Days when > 50% of spikes remained marketable) ([9]; 10 mg/L): 12 days
- Spikes with Wilted Flower Florets after 7 days (% of total) ([9]; 25 mg/L): 38.7 ± 8.5 % of total
- Leaf water content of spikes [9]: higher than that of LPEegg and water-treated spikes
- spikes wilted after 7 days of treatment [9]: 30-39%
- PLD activity, % of the control ([10]; 10 μM (FIG. 3)): 50%
- PLD activity, % of the control ([10]; 40 μM, PC substrate (FIG. 1)): 16%
- PLD activity, % of the control [10, 13]: 11%
- Vmax ([10]; in the presence of LPE (18:1), control Vmax 20.0): 2.9 μmol min^−1 mg^−1 protein
- Km ([10]; read-out: apparent Km for PLD, in the presence of LPE, substrate PC (FIG. 4)): 1700 µM
- Type of PLD inhibition ([10]; substrate concentration varied (FIG. 4)): non-competitive inhibition

Compound: NCCO [ethanolamine]
- Effect of components of the LPE molecule on PLD activity [10]: no inhibitory effect

Compound: O=P(O)(O)CCCl [Ethephon (E), ethephon]
- Chlorophyll Content [11]: 3.65 ± 0.25 mg/g dry wt
- Protein Content [11]: 58.8 ± 14.7 mg/g dry wt

Compound: lysophosphatidylglycerol [LPG]
- Effect of different lysophospholipids on PLD activity [10]: did not significantly affect

Compound: CCCCCCCCCCCCCC(=O)OCC(O)COP(=O)(O)OCCN (stereo not shown) [LPE 14:0]
- Ethylene production, Relative % [3]: 100.0%
- Effect on PLD activity ([10]; 40 and 200 μM, LPE with different acyl chains (FIG. 1)): very little effect

Compound: lysophosphatidylserine [LPS]
- Effect of different lysophospholipids on PLD activity [10]: did not significantly affect

Compound: Lysophosphatidylcholine [LPC]
- Effect of different lysophospholipids on PLD activity [10]: did not significantly affect

Compound: CCCCCCCCCCCCCCCC(=O)OCC(O)COP(=O)(O)OCCN (stereo not shown) [LPE16:0]
- Ethylene production, Relative % [3]: 92.7%

Compound: lysophosphatidic acid [LPA]
- PLD activity, % of the control [10, 13]: 169%
- Effect of different lysophospholipids on PLD activity [10]: significantly increased PLD activity

Compound: lysophosphatidylinositol [LPI]
- chlorophyll content of senescing leaves [12]: much higher than leaves treated with LPA, LPC or LPEegg
- Ethylene Production after 7 days [4]: 0.71 ± 0.40 nl/g. hr^1
- Rotten fruits after 3 weeks (% of total) [4]: 17.5 % of total
- ethylene production relative to control [4]: about half of the control
- At Harvest, Partial Red fruits (weight % of total) [5]: 11.7 weight % of total
- At Harvest, Green fruits (weight % of total) [5]: 18.3 weight % of total
- 3 Weeks After Harvest, Soft Fruits (non marketable) (weight % of total) [5]: 25.6 weight % of total
- At Harvest, Red fruits (weight % of total) [5]: 70.1 weight % of total
- Marketable Flowers after 6 days of treatment (% of total) [8]: 44.2 ± 8.3 % of total
- Spikes with Wilted Flower Florets after 7 days (% of total) ([9]; 5 mg/L, control 75.5 ± 10.3): 21.6 ± 7.0 % of total
- Water Content of Leaf after 18 days (Fresh wt/Dry wt) ([9]; 5 mg/L): 7.57 ± 0.52 Fresh wt/Dry wt
- Spikes with Wilted Flower Florets after 7 days (% of total) ([9]; 10 mg/L): 15.0 ± 11.5 % of total
- Vase Life of Spikes (Days when > 50% of spikes remained marketable) ([9]; 10 mg/L): 13 days
- Spikes with Wilted Flower Florets after 7 days (% of total) ([9]; 25 mg/L): 17.8 ± 7.5 % of total
- Leaf water content of spikes [9]: higher than that of LPEegg and water-treated spikes
- spikes wilted after 7 days of treatment [9]: 15-22%
- PLD activity, % of the control [10, 13]: 31%
- Effect of different lysophospholipids on PLD activity [10]: inhibitory effects somewhat similar to those of LPE

Compound: phosphatidylethanolamine [PE]
- PLD activity, % of the control [10, 13]: 126%

Compound: CCCCCCCC/C=C\CCCCCCCC(=O)O [18:1 fatty acid]
- Effect of components of the LPE molecule on PLD activity [10]: no inhibitory effect

Compound: CCCCCCCCCCCCCCCCCC(=O)OCC(O)COP(=O)(O)OCCN (stereo not shown) [LPE18:0]
- Ethylene production, Relative % [3]: 71.3%

Reference: patent US6426105B1, “Use of lysophosphatidylethanolamine (18.1) and lysophosphatidylinositol to retard senescence and to enhance fruit ripening” (Wisconsin Alumni Research Foundation, priority 1997, dated 2002)
